Patent US20260285850A1, “SUBSTITUTED OXAZOLIDINONES AND IMIDAZOLINONES AS HERBICIDES” (FMC CORPORATION, priority 2023, published 2026)

Columns and labels:
Assay type in all cases: in vivo
[1] = test system: green foxtail (Setaria viridis); assay: Test A postemergence application, visual injury rating 0-100; conditions: 10 days
How it was run: (§1)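 Compounds formulated in a non-phytotoxic solvent with surfactant are sprayed onto soil of freshly planted loam-sand pots ahead of emergence, or onto emerged plants 2-10 cm tall. After a 10-day greenhouse period, each species is scored visually for injury against untreated controls.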

[2] = test system: barnyardgrass (Echinochloa crus-galli); assay: as above; conditions: 10 days
How it was run: as §1

[3] = test system: oat, wild (wild oat, Avena fatua); assay: as above; conditions: 10 days
How it was run: as §1

[4] = test system: blackgrass (Alopecurus myosuroides); assay: as above; conditions: 10 days
How it was run: as §1

[5] = test system: kochia (Bassia scoparia); assay: as above; conditions: 10 days
How it was run: as §1

[6] = test system: galium (catchweed bedstraw, Galium aparine); assay: as above; conditions: 10 days
How it was run: as §1

[7] = test system: soybean (Glycine max); assay: as above; conditions: 10 days
How it was run: as §1

[8] = test system: ryegrass, Italian (italian ryegrass, Lolium multiflorum); assay: as above; conditions: 10 days
How it was run: as §1

[9] = test system: ragweed (common ragweed, Ambrosia artemisiifolia); assay: as above; conditions: 10 days
How it was run: as §1

[10] = test system: horseweed (Erigeron canadensis); assay: as above; conditions: 10 days
How it was run: as §1

[11] = test system: wheat (Triticum aestivum); assay: as above; conditions: 10 days
How it was run: as §1

[12] = test system: corn (Zea mays); assay: as above; conditions: 10 days
How it was run: as §1

[13] = test system: palmer (palmer amaranth, palmer pigweed, Amaranthus palmeri); assay: as above; conditions: 10 days
How it was run: as §1

[14] = test system: green foxtail (Setaria viridis); assay: Test A preemergence soil spray, visual injury rating 0-100; conditions: 10 days, 0 = no effect, 100 = complete control
How it was run: as §1

[15] = test system: barnyardgrass (Echinochloa crus-galli); assay: as above; conditions: 10 days, 0 = no effect, 100 = complete control
How it was run: as §1

[16] = test system: oat, wild (wild oat, Avena fatua); assay: as above; conditions: 10 days, 0 = no effect, 100 = complete control
How it was run: as §1

[17] = test system: blackgrass (Alopecurus myosuroides); assay: as above; conditions: 10 days, 0 = no effect, 100 = complete control
How it was run: as §1

[18] = test system: kochia (Bassia scoparia); assay: as above; conditions: 10 days, 0 = no effect, 100 = complete control
How it was run: as §1

[19] = test system: soybean (Glycine max); assay: as above; conditions: 10 days, 0 = no effect, 100 = complete control
How it was run: as §1

[20] = test system: ryegrass, Italian (italian ryegrass, Lolium multiflorum); assay: as above; conditions: 10 days, 0 = no effect, 100 = complete control
How it was run: as §1

[21] = test system: ragweed (common ragweed, Ambrosia artemisiifolia); assay: as above; conditions: 10 days, 0 = no effect, 100 = complete control
How it was run: as §1

[22] = test system: wheat (Triticum aestivum); assay: as above; conditions: 10 days, 0 = no effect, 100 = complete control
How it was run: as §1

[23] = test system: corn (Zea mays); assay: as above; conditions: 10 days, 0 = no effect, 100 = complete control
How it was run: as §1

[24] = test system: palmer (palmer amaranth, palmer pigweed, Amaranthus palmeri); assay: as above; conditions: 10 days, 0 = no effect, 100 = complete control
How it was run: as §1

[25] = test system: ducksalad (Heteranthera limosa); assay: Test B flooded paddy test, visual plant response rating 0-100; conditions: 250 g ai/ha, Flood, applied to paddy water, evaluated after 13 days
How it was run: (§2)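 Each species was raised to two leaves before flooding to a 3 cm depth and dosing the water with compound. Injury was assessed by eye after 13 days under greenhouse conditions.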

[26] = test system: barnyardgrass (Echinochloa crusgalli); assay: as above; conditions: 250 g ai/ha, Flood, applied to paddy water, evaluated after 13 days
How it was run: as §2

[27] = test system: rice (Oryza sativa); assay: as above; conditions: 250 g ai/ha, Flood, applied to paddy water, evaluated after 13 days
How it was run: as §2

[28] = test system: sedge, umbrella (small-flower umbrella sedge, Cyperus difformis); assay: as above; conditions: 250 g ai/ha, Flood, applied to paddy water, evaluated after 13 days
How it was run: as §2

[29] = 31 g ai/ha, postemergence, 0 = no effect, 100 = complete control
[30] = Postemergence, 125 g ai/ha, 0 is no effect, 100 is complete control

CCOC(=O)C1CCC(NC(=O)C2(C)CN(c3cc(F)cc(Cl)c3)C(=O)O2)C1 (stereo not shown) [Compound 19]
Foxtail, Green plant response rating (0-100) [1, 29]: 40 | Foxtail, Green plant response rating (0 to 100 scale) [1, 30]: 90 | Barnyardgrass plant response rating (0-100) [2, 29]: 60 | Barnyardgrass plant response rating (0 to 100 scale) [2, 30]: 100 | Oat, Wild plant response rating (0-100) [3, 29]: 90 | Oat, Wild plant response rating (0 to 100 scale) [3, 30]: 90 | Blackgrass plant response rating (0-100) [4, 29]: 70 | Blackgrass plant response rating (0 to 100 scale) [4, 30]: 90 | Kochia plant response rating (0-100) [5, 29]: 10 | Kochia plant response rating (0 to 100 scale) [5, 30]: 70 | Galium plant response rating (0-100) [6, 29]: 80 | Galium plant response rating (0 to 100 scale) [6, 30]: 80 | Soybean plant response rating (0-100) [7, 29]: 50 | Soybean plant response rating (0 to 100 scale) [7, 30]: 60 | Ryegrass, Italian plant response rating (0-100) [8, 29]: 90 | Ryegrass, Italian plant response rating (0 to 100 scale) [8, 30]: 90 | Ragweed plant response rating (0-100) [9, 29]: 0 | Ragweed plant response rating (0 to 100 scale) [9, 30]: 40 | Horseweed plant response rating (0-100) [10, 29]: 0 | Horseweed plant response rating (0 to 100 scale) [10, 30]: 0 | Wheat plant response rating (0-100) [11, 29]: 80 | Wheat plant response rating (0 to 100 scale) [11, 30]: 90 | Corn plant response rating (0-100) [12, 29]: 50 | Corn plant response rating (0 to 100 scale) [12, 30]: 100 | Amaranth, Palmer plant response rating (0-100) [13, 29]: 30 | Amaranth, Palmer / Pigweed, Palmer plant response rating (0 to 100 scale) [13, 30]: 90 | Foxtail, Green plant response rating (0-100) ([14]; 31 g ai/ha): 50 | Foxtail, Green plant response rating (0 to 100 scale) ([14]; 125 g ai/ha): 90 | Barnyardgrass plant response rating (0-100) ([15]; 31 g ai/ha): 30 | Barnyardgrass plant response rating (0 to 100 scale) ([15]; 125 g ai/ha): 80 | Oat, Wild plant response rating (0-100) ([16]; 31 g ai/ha): 0 | Oat, Wild plant response rating (0 to 100 scale) ([16]; 125 g ai/ha): 60 | Blackgrass plant response rating (0-100) ([17]; 31 g ai/ha): 0 | Blackgrass plant response rating (0 to 100 scale) ([17]; 125 g ai/ha): 50 | Kochia plant response rating (0-100) ([18]; 31 g ai/ha): 0 | Kochia plant response rating (0 to 100 scale) ([18]; 125 g ai/ha): 90 | Soybean plant response rating (0-100) ([19]; 31 g ai/ha): 0 | Soybean plant response rating (0 to 100 scale) ([19]; 125 g ai/ha): 20 | Ryegrass, Italian plant response rating (0-100) ([20]; 31 g ai/ha): 80 | Ryegrass, Italian plant response rating (0 to 100 scale) ([20]; 125 g ai/ha): 80 | Ragweed plant response rating (0-100) ([21]; 31 g ai/ha): 0 | Ragweed plant response rating (0 to 100 scale) ([21]; 125 g ai/ha): 0 | Wheat plant response rating (0-100) ([22]; 31 g ai/ha): 70 | Wheat plant response rating (0 to 100 scale) ([22]; 125 g ai/ha): 90 | Corn plant response rating (0-100) ([23]; 31 g ai/ha): 10 | Corn plant response rating (0 to 100 scale) ([23]; 125 g ai/ha): 50 | Amaranth, Palmer plant response rating (0-100) ([24]; 31 g ai/ha): 30 | Amaranth, Palmer plant response rating (0 to 100 scale) ([24]; 125 g ai/ha): 90 | Plant response rating, Ducksalad (0 to 100 scale, 0 is no effect and 100 is complete control) [25]: 70 | Plant response rating, Barnyardgrass (0 to 100 scale, 0 is no effect and 100 is complete control) [26]: 65 | Plant response rating, Rice (0 to 100 scale, 0 is no effect and 100 is complete control) [27]: 0 | Plant response rating, Sedge, Umbrella (0 to 100 scale, 0 is no effect and 100 is complete control) [28]: 60
